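Each compound was tested at five concentrations against cells in 96-well plates for 48 hours. At the TGI there is no net growth.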
How the values were obtained:
Assay in all cases: NCI anticancer screen, dose series, 48 h
OVCAR-5 ovarian = system: OVCAR-5 ovarian
NCI-H522 lung = system: NCI-H522 lung
HCT-116 colon = system: HCT-116 colon
LOX IMVI melanoma = system: LOX IMVI melanoma
CAKI-1 renal = system: CAKI-1 renal
UACC-257 melanoma = system: UACC-257 melanoma
RPMI-8226 leukemia = system: RPMI-8226 leukemia
HS 578T breast = system: HS 578T breast
MCF7 breast = system: MCF7 breast
SNB-19 CNS = system: SNB-19 CNS
MDA-MB-231 breast = system: MDA-MB-231 breast
SN12C renal = system: SN12C renal
SF-268 CNS = system: SF-268 CNS
HOP-62 NSCLC = system: HOP-62 NSCLC
IGROV1 ovarian = system: IGROV1 ovarian
COLO 205 colon = system: COLO 205 colon
SR leukemia = system: SR leukemia
MDA-MB-435 = system: MDA-MB-435
M14 melanoma = system: M14 melanoma
HCT-15 colon = system: HCT-15 colon
SK-MEL-2 melanoma = system: SK-MEL-2 melanoma
NCI-H226 lung = system: NCI-H226 lung
A549 NSCLC = system: A549 NSCLC
UACC-62 melanoma = system: UACC-62 melanoma
UO-31 renal = system: UO-31 renal
HL-60(TB) leukemia = system: HL-60(TB) leukemia
A498 renal = system: A498 renal
OVCAR-3 ovarian = system: OVCAR-3 ovarian
NCI/ADR-RES ovarian = system: NCI/ADR-RES ovarian
DU-145 prostate = system: DU-145 prostate
PC-3 prostate = system: PC-3 prostate
SF-539 CNS = system: SF-539 CNS
OVCAR-4 ovarian = system: OVCAR-4 ovarian
K-562 leukemia = system: K-562 leukemia
OVCAR-8 ovarian = system: OVCAR-8 ovarian
MDA-N = system: MDA-N
EKVX NSCLC = system: EKVX NSCLC
SNB-75 CNS = system: SNB-75 CNS
SF-295 CNS = system: SF-295 CNS
KM12 colon = system: KM12 colon
ACHN renal = system: ACHN renal
HT29 colon = system: HT29 colon
HOP-92 NSCLC = system: HOP-92 NSCLC
SK-MEL-5 melanoma = system: SK-MEL-5 melanoma
SK-OV-3 ovarian = system: SK-OV-3 ovarian
U251 CNS = system: U251 CNS
SK-MEL-28 melanoma = system: SK-MEL-28 melanoma
NCI-H460 lung = system: NCI-H460 lung
MALME-3M melanoma = system: MALME-3M melanoma
NCI-H23 lung = system: NCI-H23 lung
CCRF-CEM leukemia = system: CCRF-CEM leukemia
786-0 renal = system: 786-0 renal
SW-620 colon = system: SW-620 colon
RXF 393 renal = system: RXF 393 renal
MOLT-4 leukemia = system: MOLT-4 leukemia
TK-10 renal = system: TK-10 renal
T-47D breast = system: T-47D breast

Measured: TGI

CC(C)(C)Nc1noc(=O)n1C(C)(C)C
> 100 µM: OVCAR-5 ovarian | NCI-H522 lung | HCT-116 colon | LOX IMVI melanoma | CAKI-1 renal | UACC-257 melanoma | RPMI-8226 leukemia | HS 578T breast | MCF7 breast | SNB-19 CNS | MDA-MB-231 breast | SN12C renal | SF-268 CNS | HOP-62 NSCLC | IGROV1 ovarian | COLO 205 colon | SR leukemia | MDA-MB-435 | M14 melanoma | HCT-15 colon | SK-MEL-2 melanoma | NCI-H226 lung | A549 NSCLC | UACC-62 melanoma | UO-31 renal | HL-60(TB) leukemia | A498 renal | OVCAR-3 ovarian | NCI/ADR-RES ovarian | DU-145 prostate | PC-3 prostate | SF-539 CNS | OVCAR-4 ovarian | K-562 leukemia | OVCAR-8 ovarian | MDA-N | EKVX NSCLC | SNB-75 CNS | SF-295 CNS | KM12 colon | ACHN renal | HT29 colon | HOP-92 NSCLC | SK-MEL-5 melanoma | SK-OV-3 ovarian | U251 CNS | SK-MEL-28 melanoma | NCI-H460 lung | MALME-3M melanoma | NCI-H23 lung | CCRF-CEM leukemia | 786-0 renal | SW-620 colon | RXF 393 renal | MOLT-4 leukemia | TK-10 renal

CCOC(=O)[C@@]12C[C@](/C=C/OC)(O[Si](C)(C)C)[C@@]13c1cc(OC)c(OC)cc1CCN3C(=O)C2O (stereo partly specified)
> 100 µM: OVCAR-5 ovarian | HCT-116 colon | LOX IMVI melanoma | CAKI-1 renal | UACC-257 melanoma | RPMI-8226 leukemia | HS 578T breast | MCF7 breast | T-47D breast | SNB-19 CNS | MDA-MB-231 breast | SN12C renal | SF-268 CNS | HOP-62 NSCLC | IGROV1 ovarian | COLO 205 colon | SR leukemia | MDA-MB-435 | M14 melanoma | HCT-15 colon | SK-MEL-2 melanoma | NCI-H226 lung | A549 NSCLC | UACC-62 melanoma | UO-31 renal | A498 renal | OVCAR-3 ovarian | NCI/ADR-RES ovarian | DU-145 prostate | PC-3 prostate | SF-539 CNS | OVCAR-4 ovarian | K-562 leukemia | OVCAR-8 ovarian | MDA-N | EKVX NSCLC | SNB-75 CNS | SF-295 CNS | KM12 colon | ACHN renal | HT29 colon | HOP-92 NSCLC | SK-MEL-5 melanoma | SK-OV-3 ovarian | U251 CNS | SK-MEL-28 melanoma | NCI-H460 lung | MALME-3M melanoma | NCI-H23 lung | CCRF-CEM leukemia | 786-0 renal | SW-620 colon | RXF 393 renal | MOLT-4 leukemia | TK-10 renal
